{"source": "patent US8541420B2", "about": "“Ketolide compounds having antimicrobial activity” (priority 2009, dated 2013)", "key": {"[1]": {"system": "S. pneumoniae", "assay": "MIC by standard CLSI agar dilution method, macrolide sensitive and resistant S. pneumoniae", "assay_type": "cell-based", "conditions": "18 hrs at 37° C.; for MIC S. pneumoniae Ery Susc. (49619): strain Ery Susc. (49619); for MIC S. pneumoniae HL-ermB (3773): strain HL-ermB (3773), HL is High level resistance; for MIC S. pneumoniae ermB (786): strain ermB (786); for MIC S. pneumoniae mefA (772): strain mefA (772)", "experimental": "(§1) The antibacterial activities of ketolide compounds of invention were evaluated by determining the minimal inhibitory concentration (MIC) according to standard CLSI agar dilution method. The media used for preculture and main culture were Tryptic Soya broth (Difco) and Mueller Hinton medium (Difco), respectively. The Mueller Hinton agar was supplemented with 5% sheep blood for streptococci and pneumococci, and with haemoglobin as well as NAD (nicotinamide adenine dinucleotide) for Haemophilus influenzae, respectively. Overnight cultures were diluted with buffered saline (pH 7.2) to the final cell density of 5×10^6-10^7 CFU/ml, and each bacterial suspension was applied with a replicator (Denley's multipoint inoculator, UK) onto a series of Mueller-Hinton agar plates containing antibacterial agents at various concentrations. Final inoculum was approximately 10^4 CFU/spot. The plates were incubated for 18 hrs at 37° C. The MIC was defined as the lowest concentration of an antibacterial agent that inhibits the development of visible microbial growth on agar."}, "[2]": {"system": "S. pyogenes", "assay": "MIC by standard CLSI agar dilution method, macrolide sensitive and resistant S. pyogenes", "assay_type": "cell-based", "design": "MIC S. pyogenes Ery Susc. (801) / MIC S. pyogenes HLermB (3530): unit not given beside the values", "conditions": "18 hrs at 37° C.; for MIC S. pyogenes Ery Susc. (801): strain Ery Susc. (801); for MIC S. pyogenes HLermB (3530): strain HLermB (3530), HL is High level resistance; for MIC S. pyogenes ermTR (810/806): strain ermTR (810/806); for MIC S. pyogenes mefA (806/763): strain mefA (806/763)", "experimental": "as §1"}}}
{"compound": "CC[C@H]1OC(=O)[C@H](C)C(=O)[C@H](C)[C@@H](O[C@@H]2O[C@H](C)C[C@H](N(C)C)[C@H]2O)[C@](C)(OC)C[C@@H](C)C(=O)[C@H](C)[C@H]2N(CCCCn3cnc(-c4cccnc4)c3)C(=O)O[C@]12C", "note": "[Telithromycin, reference compound]", "values": [{"measurement": "MIC S. pneumoniae Ery Susc. (49619)", "setting": "[1]", "result": 0.007}, {"measurement": "MIC S. pneumoniae HL-ermB (3773)", "setting": "[1]", "result": 4.0}, {"measurement": "MIC S. pneumoniae ermB (786)", "setting": "[1]", "result": 0.5}, {"measurement": "MIC S. pneumoniae mefA (772)", "setting": "[1]", "result": 1.0}, {"measurement": "MIC S. pyogenes Ery Susc. (801)", "setting": "[2]", "result": 0.03}, {"measurement": "MIC S. pyogenes HLermB (3530)", "setting": "[2]", "result": 16.0}, {"measurement": "MIC S. pyogenes ermTR (810/806)", "setting": "[2]", "result": 0.03}, {"measurement": "MIC S. pyogenes mefA (806/763)", "setting": "[2]", "result": 0.06}]}
{"compound": "(11S,21R)-3-Decladinosyl-11,12-dideoxy-6-O-methyl-3-oxo-12,11-{oxycarbonyl-[E-amino-(2-(pyrimidin-2-yl)-1,3,4-thiadiazol-5-yl-methyl)oxy-imino-methylene]}-erythromycin A [Example 2]", "values": [{"measurement": "MIC S. pneumoniae Ery Susc. (49619)", "setting": "[1]", "result": 0.007}, {"measurement": "MIC S. pneumoniae HL-ermB (3773)", "setting": "[1]", "result": 1.0}, {"measurement": "MIC S. pneumoniae ermB (786)", "setting": "[1]", "result": 0.06}, {"measurement": "MIC S. pneumoniae mefA (772)", "setting": "[1]", "result": 0.25}, {"measurement": "MIC S. pyogenes Ery Susc. (801)", "setting": "[2]", "result": 0.007}, {"measurement": "MIC S. pyogenes HLermB (3530)", "setting": "[2]", "result": 0.25}, {"measurement": "MIC S. pyogenes ermTR (810/806)", "setting": "[2]", "result": 0.015}, {"measurement": "MIC S. pyogenes mefA (806/763)", "setting": "[2]", "result": 0.06}]}
{"compound": "(11S, 21R)-3-Decladinosyl-11,12-dideoxy-6-O-methyl-3-oxo-12,11-{oxycarbonyl-[E-amino-(2-(pyridin-2-yl)-1,3,4-thiadiazol-5-yl-methyl)oxy-imino-methylene]}-erythromycin A [Example 1]", "values": [{"measurement": "MIC S. pneumoniae Ery Susc. (49619)", "setting": "[1]", "result": 0.007}, {"measurement": "MIC S. pneumoniae HL-ermB (3773)", "setting": "[1]", "result": 1.0}, {"measurement": "MIC S. pneumoniae ermB (786)", "setting": "[1]", "result": 0.06}, {"measurement": "MIC S. pneumoniae mefA (772)", "setting": "[1]", "result": 0.06}, {"measurement": "MIC S. pyogenes Ery Susc. (801)", "setting": "[2]", "result": 0.015}, {"measurement": "MIC S. pyogenes HLermB (3530)", "setting": "[2]", "result": 0.5}, {"measurement": "MIC S. pyogenes ermTR (810/806)", "setting": "[2]", "result": 0.015}, {"measurement": "MIC S. pyogenes mefA (806/763)", "setting": "[2]", "result": 0.06}]}
